Test results taken from patent US11945792B2, “Crystalline forms of 6-(1-acryloylpiperidin-4-yl)-2-(4-phenoxyphenyl)nicotinamide” (BEIJING INNOCARE PHARMA TECH CO., LTD., priority 2018, dated 2024).
Converted amounts (≈) assume the structure as drawn. “Also recorded” adds a separate entry of the source.

What was measured:
Format in all cases: physicochemical
[1] = Solid-state stability assessment on storage (XRPD and HPLC purity)
Procedure: Approximate 10 mg of Type A sample was added into each 1.5-mL glass vial and stored at 80° C. (closed) for 1 day, 25° C./60% RH and 40° C./75% RH (open) for 1 week, then tested by XRPD and HPLC purity. Approximate 4 mg of Type B sample was added into each 1.5-mL glass vial and stored at 80° C. (closed) for 1 day, 25° C./60% RH and 40° C./75% RH (open) for 1 week, then tested by XRPD and HPLC purity. Approximate 4 mg of Type D sample was added into each 1.5-mL glass vial and stored at 25° C./60% RH and 40° C./75% RH (open) for 1 week, then tested by XRPD and HPLC purity. Approximate 7 mg of Type F sample was added into each 1.5-mL glass vial and stored at 80° C. (closed) for 1 day, 25° C./60% RH and 40° C./75% RH (open) for 1 week, then tested by XRPD and HPLC purity.

[2] = Equilibrium solubility in water at room temperature for 24 hours; settings: for Form Change: residual solids by XRPD after 24 hours in water at room temperature; for pH: solubility test in water, 24 hours; for pH / Solubility: room temperature; for Solubility: water, 24 hours equilibrium
Procedure: 10 mg of Type A, B, D, and F samples each was added into a 1.5-mL glass vial, and 1.0 mL of water was then added. The mixture was rolled at 25 rpm at room temperature for 24 hours. The suspension was centrifuged and filtered to isolate the supernatant for HPLC concentration and purity testing and the residual solids were characterized by XRPD.

[3] = Interconversion of crystal forms via heating and slurry competition experiments; settings: for form after slurry competition: slurry in various solvent systems
Source text: Relationships among Type A-F crystal forms were investigated via heating and slurry competition experiments.

[4] = Hygroscopicity assessment by dynamic vapor sorption (DVS); settings: for hygroscopicity class: Chinese Pharmacopeia 2010 definition; for hygroscopicity class / water uptake: 25° C., 80% RH; for form change after DVS test: XRPD before and after DVS test
Procedure: XRPD studies was performed using a Panalytical Empyrean X-ray powder diffractometer. The parameters of the X-ray powder diffraction of the present disclosure are as follows: • X-ray Reflection: Cu, Kα • Kα1 (Å): 1.540598; Kα2 (Å): 1.544426 • Kα2/Kα1 intensity ratio: 0.50 • Voltage: 45 (kV) • Current: 40 (mA) • Scanning range: from 3.0 degree to 40.0 degree • DSC data in the present disclosure were acquired by a TA Q2000. The parameters of the DSC method of the present disclosure were as follows: • Heating rate: 10° C./min • Purge gas: nitrogen • TGA data in the present disclosure are acquired by a TA Q5000. The parameters of the TGA method of the present disclosure were as follow: • Heating rate: 10° C./min • Purge gas: nitrogen • Dynamic vapor sorption (DVS) data in the present disclosure were acquired by a SMS (Surface Measurement Systems) DVS Intrinsic. The parameters of the dynamic vapor sorption (DVS) method of the present disclosure were as follows: • Temperature: 25° C. • Gas and flow rate: nitrogen, 200 mL/min • dm/dt: 0.002%/min • RH range: 0% RH-95% RH Approximate 10 mg of Type B sample in the present disclosure was assessed by hygroscopicity using a dynamic vapor sorption (DVS) instrument, and tested by XRPD before and after DVS test.

[5] = Solid-state stability assessment on storage (XRPD and HPLC purity); settings: 92.5% RH for about 17 days
[6] = 25° C./60% RH and 40° C./75% RH (open) 1 week
[7] = 80° C. (closed) 1 day and 25° C./60% RH, 40° C./75% RH (open) 1 week
[8] = ACN, EtOH, MeOH/H2O (1:1, v/v) and H2O from RT to 50/70° C.

| Compound | Purity/initial purity ([1]; 25° C./60% RH (open)/1 week) [%] | Purity/initial purity ([1]; 40° C./75% RH (open)/1 week) [%] | change in purity after storage [1, 7] | stability of the form after storage [1, 7] | Purity/initial purity ([1]; 80° C. (closed)/1 day) [%] | Form Change [2] | pH [2] | form after slurry [3, 8] | form after slurry competition [3] | hygroscopicity class ([4]; DVS) | Solubility [2] [µg/mL] | water uptake ([4]; DVS) [%] | stability of the form after storage [1, 6] | form change after DVS test [4] | other results |
| --- | --- | --- | --- | --- | --- | --- | --- | --- | --- | --- | --- | --- | --- | --- | --- |
| C=CC(=O)N1CCC(c2ccc(C(N)=O)c(-c3ccc(Oc4ccccc4)cc3)n2)CC1 [Type A, 6-(1-acryloylpiperidin-4-yl)-2-(4-phenoxyphenyl)nicotinamide] | 100.0 | 100.1 | no decrease in purity | did not change; also recorded: stable | 100.0 | Yes, to Type B | 7.4 | converted to Type F | converted into anhydrate Type F | hygroscopic |  |  | relatively good physical and chemical stability |  | crystallinity after storage [5]: decreased |
| C=CC(=O)N1CCC(c2ccc(C(N)=O)c(-c3ccc(Oc4ccccc4)cc3)n2)CC1 [Type B, 6-(1-acryloylpiperidin-4-yl)-2-(4-phenoxyphenyl)nicotinamide] | 99.5 | 99.7 | no decrease in purity | did not change; also recorded: stable | 99.7 | No | 7.7 | converted to Type F | converted into anhydrate Type F | slightly hygroscopic | 6 (≈ 14 µM) | 0.5 |  | did not change; also recorded: no form change |  |
| C=CC(=O)N1CCC(c2ccc(C(N)=O)c(-c3ccc(Oc4ccccc4)cc3)n2)CC1 [Type C, 6-(1-acryloylpiperidin-4-yl)-2-(4-phenoxyphenyl)nicotinamide] |  |  |  |  |  |  |  |  |  |  |  |  |  |  | form after slurry ([3]; H2O at 50° C. for about 21 days): convert to anhydrate Type B |
| C=CC(=O)N1CCC(c2ccc(C(N)=O)c(-c3ccc(Oc4ccccc4)cc3)n2)CC1 [Type D, 6-(1-acryloylpiperidin-4-yl)-2-(4-phenoxyphenyl)nicotinamide] | 99.9 | 99.9 |  |  |  | No | 8.0 |  | converted into anhydrate Type F |  | 18 (≈ 42.1 µM) |  | did not change; also recorded: stable |  | change in purity after storage [1, 6]: no significant decrease in purity; Final form ([1]; 80° C. (closed)/1 day, XRPD): converted to a mixture of Type B and D; also recorded: converted to the mixture of Type B and D; form after slurry ([3]; MeOH/H2O (aw~0.5) and EtOH/H2O (aw=0~1) at RT): converted to anhydrate Type F; form after dehydration ([3]; dehydration at elevated temperature): converted to anhydrate Type E; DVS finding ([4]; DVS): relative stable hydrate |
| C=CC(=O)N1CCC(c2ccc(C(N)=O)c(-c3ccc(Oc4ccccc4)cc3)n2)CC1 [Type F, 6-(1-acryloylpiperidin-4-yl)-2-(4-phenoxyphenyl)nicotinamide] | 100.0 | 100.0 | no decrease in purity | did not change; also recorded: stable | 100.0 | No | 6.9 |  |  | slightly hygroscopic |  | 1.2 | relatively good physical and chemical stability | did not change; also recorded: no form change | relative thermodynamic stability ([3]; between RT and 50/70° C.): thermodynamically more stable form than Type A/B/D; also recorded: more stable anhydrous form among Type A/B/D/F |
